From patent publication US20190070165A1, “N-HYDROXYISOQUINOLINEDIONE INHIBITORS OF HBV REPLICATION” (Saint Louis University, priority 2016, published 2019)
Like-named read-outs stand apart in the source and are kept apart here.

Legend:
[1] = test system: patient-derived RNAseH enzymes; experiment: Biochemical RNAseH assay with variant patient-derived RNAseH enzymes; design: species or system Hepatitis B virus; conditions: compounds at their respective IC50 values, four genotype D enzymes
Experimental: HBV has 8 genotypes differing in sequence by 8%. Genetic diversity in the RNAseH domain is about 6%, which is easily high enough to modulate viral sensitivity to RNAseH inhibitors. […] Twelve purified, patient-derived RNAseH enzymes (4 from each genotypes B, C and D) were tested with the compounds at their respective IC50 values in a biochemical RNAseH assay. […] Equivalent results were obtained for all 12 enzymes against compounds #1 and #46. Therefore, HBV's high genetic variation is unlikely to present a substantial barrier to drug development.

HBV replication [2] = experiment: Chou-Talalay synergy analysis with Lamivudine against HBV replication; conditions: CI <1.0 indicates synergy
Experimental: Chou-Talaly analysis yields a combination index (CI). CI values <1.0 indicate synergy, CIs of approximately 1.0 indicate additive interactions, and CI values >1.0 indicate antagonism. CI values are calculated at various efficacy levels (EC50, EC75, EC90, and EC95), and a weighted CI value favoring higher efficacy levels is also generated.

HBV RNaseH [3] = target: T1, HBV RNaseH (Hepatitis B virus genotype D subtype ayw, UniProt P03156); experiment: Molecular beacon RNaseH assay; conditions: for Inhibition of HBV RNaseH, Molecular Beacon cleavage assay: Table 3, 0 to 500 μM
Target sequence in this assay (P03156 671-832): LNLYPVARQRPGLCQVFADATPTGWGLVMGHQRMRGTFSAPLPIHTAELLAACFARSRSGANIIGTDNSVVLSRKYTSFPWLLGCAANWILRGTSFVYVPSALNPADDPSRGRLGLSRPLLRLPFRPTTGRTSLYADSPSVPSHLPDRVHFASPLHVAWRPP
Experimental: In this assay, a hairpin DNA oligonucleotide labeled with fluorescein on one end and a quencher on the other is held in a linear conformation by annealing to a complementary RNA; cleavage of the RNA causes the DNA to fold into a hairpin, suppressing fluorescence (FIG. 8A).
The substrate is a hairpin DNA oligonucleotide with a 5′ fluorescein reporter and a 3′ black hole quencher annealed to a complementary RNA oligonucleotide. The reaction was initiated by adding 5 mM Mg^++, and fluorescence was monitored at 37° C. with a Synergy 4 96-well plate reader. Inhibition was qualitatively determined as a dose-dependent reduction in the rate of substrate degradation.

HBV RNaseH [4] = target: T1, HBV RNaseH; experiment: Detection of capsid-associated RNA:DNA heteroduplexes by Southern analysis; assay type: cell-based; design: expressed in transfected cells; host or cells: HepDES19 (HepG2 with a stably transfected HBV genotype D genome); conditions: HepDES19 cells, seven days; #89 at 4×EC50 (10.4 μM), #138 at 30 μM
Experimental: RNA:DNA heteroduplexes migrate as double-stranded products, but degradation of the RNA strand with exogenous RNase causes the DNAs to migrate as single-stranded species. To test for accumulation of RNA:DNA heteroduplexes, HepDES19 cells replicating HBV were treated with 4×EC50 (10.4 μM) of compound #89 and 30 μM compound #138 (negative control). HBV cores were harvested after seven days of compound treatment. Capsid-associated nucleic acids were purified and split into two pools; one pool was treated with RNaseA and the other pool was mock treated.
HepDES19 cells were plated in 100 mm dishes without tetracycline and incubated for 72 hours in the absence of tetracycline before addition of compound #89 at 4×EC50 (10.4 μM) and the negative control compound #138 at 30 μM; compound-containing media was replaced every three days. HBV nucleic acids were purified seven days after compound addition. HBV core particles were isolated by sedimentation through a sucrose cushion as described (Tavis et al., 1998). Cores were treated overnight with proteinase K (0.5 mg/mL) and 1.5% SDS at 37° C. Nucleic acids were purified by phenol-chloroform extraction and ethanol precipitation. The nucleic acids were split into two pools. One pool was treated with RNaseA (1.5 μg/μL) at 37° C. for 30 minutes and the other was mock-treated. […]
Target sequence in this assay (P03156 whole entry): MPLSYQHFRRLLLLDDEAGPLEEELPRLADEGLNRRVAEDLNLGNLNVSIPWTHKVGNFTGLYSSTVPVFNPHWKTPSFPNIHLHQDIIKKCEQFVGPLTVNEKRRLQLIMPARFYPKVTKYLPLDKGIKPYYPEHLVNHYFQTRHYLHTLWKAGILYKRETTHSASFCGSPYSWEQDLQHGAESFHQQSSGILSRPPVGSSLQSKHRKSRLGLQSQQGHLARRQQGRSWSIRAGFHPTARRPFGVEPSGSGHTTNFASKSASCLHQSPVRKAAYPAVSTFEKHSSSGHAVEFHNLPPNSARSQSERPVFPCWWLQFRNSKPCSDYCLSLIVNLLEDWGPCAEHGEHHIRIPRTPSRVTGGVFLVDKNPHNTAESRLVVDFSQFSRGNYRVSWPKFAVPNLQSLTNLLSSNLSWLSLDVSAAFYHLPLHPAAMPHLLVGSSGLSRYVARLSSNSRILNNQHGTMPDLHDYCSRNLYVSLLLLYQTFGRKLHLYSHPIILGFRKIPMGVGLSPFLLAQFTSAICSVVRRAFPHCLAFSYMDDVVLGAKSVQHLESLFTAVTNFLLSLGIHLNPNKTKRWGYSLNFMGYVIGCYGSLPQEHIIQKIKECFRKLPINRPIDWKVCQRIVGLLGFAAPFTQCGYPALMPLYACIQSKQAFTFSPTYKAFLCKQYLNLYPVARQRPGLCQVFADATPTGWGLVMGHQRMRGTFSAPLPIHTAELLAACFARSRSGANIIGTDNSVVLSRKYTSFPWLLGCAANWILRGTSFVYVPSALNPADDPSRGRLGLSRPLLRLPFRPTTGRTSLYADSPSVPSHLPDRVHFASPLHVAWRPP

HSV-1 = HSV-1 replication inhibition assay in Vero cells; assay type: cell-based, herpes simplex virus 1; conditions: Human alphaherpesvirus 1, 24 h; 5 μM, Vero cells; read-out: HSV-1 suppression (log10 at 5 μM), class symbol
Experimental: Thirty-seven compounds were counter-screened for efficacy against HSV-1 to evaluate specificity of the inhibitors and to help determine if the efficacy against HBV replication may be due to an unsuspected indirect effect on the cells. Vero cells infected with HSV-1 at an MOI of 0.1 were treated with 5 μM of compound for 24 hours. Inhibition was calculated as log 10 suppression of plaque forming units compared with DMSO vehicle control.
Vero cells were maintained DMEM supplemented with 3% newborn calf serum, 3% bovine growth serum, 2 mM L-glutamine, and P/S. Test compounds were applied to the cells in the presence of 0.05% DMSO. The herpes simplex virus 1 (HSV-1) strain used for screening was a de-identified clinical isolate from the Saint Louis University Hospital passaged once in culture.
Compounds and virus were diluted in phosphate buffered saline (PBS) containing 2% newborn calf serum and 2 mM L-glutamine so that the final concentration of compound was 5 μM. The cells were incubated at 37° C. for 1 hour with the virus containing inoculum, then the inoculum was removed and the wells were washed once in PBS. Compound diluted to 5 μM in supplemented DMEM was added and cells were incubated at 37° C. for an additional 23 hours. The plates were then microscopically inspected for cytopathic effect (CPE) or toxicity and then frozen at −80° C. Virus titers for wells with limited CPE compared to DMSO vehicle-treated controls were then determined by plaque assay on Vero cells. Each experiment was repeated at least once.

HBV replication [5] = experiment: HBV replication inhibition assay in HepDES19 cells (strand-preferential q-PCR); assay type: cell-based, Hepatitis B virus; conditions: Hepatitis B virus
Experimental: HBV replication assay. […] Cells were seeded into 6-well plates and incubated in DMEM/F12, 10% fetal bovine serum (FBS), 1% penicillin/streptomycin (P/S) with 1 μg/mL tetracycline. Tetracycline was withdrawn after 24 hours. The test compound was applied to duplicate wells 48 hours later in medium containing a final DMSO concentration of 1%, and medium containing the compound was refreshed daily for the following two days. Cells were harvested and non-encapsidated nucleic acids were digested with micrococcal nuclease (New England Biolabs). HBV DNA was purified from capsids using QIAamp Cador Pathogen Mini Kit (Qiagen) with proteinase K incubation overnight at 37° C. TaqMan PCR was performed for 40 cycles at an annealing temperature of 60° C.
Thirty-nine HID, HPD, flutimide, and related POH compounds (Structures shown in FIG. 3) were screened for their ability to inhibit HBV replication in HepDES19 cells. […] Inhibition was calculated as the amount of plus-polarity DNA relative to the DMSO treated controls.
Briefly, HepDES19 were seeded in 12-well plates at 2×10^5 cells per well in the absence of tetracycline. Test compound was applied to cells 48 hours after removal of tetracycline. […] HBV DNA was purified from capsids using a QIAamp pathogen minikit with proteinase K digestion extended to overnight at 37° C. TaqMan PCR was performed for 40 cycles with an annealing temperature of 60° C.

human RNaseH1 = target: T2, human RNaseH1 (Homo sapiens, UniProt O60930); experiment: Oligonucleotide-directed RNA cleavage assay, human RNaseH1; assay type: biochemical; conditions: Table 1, qualitative inhibition
T2 construct: made in house; host or cells: E. coli
T2 sequence (O60930 1-286): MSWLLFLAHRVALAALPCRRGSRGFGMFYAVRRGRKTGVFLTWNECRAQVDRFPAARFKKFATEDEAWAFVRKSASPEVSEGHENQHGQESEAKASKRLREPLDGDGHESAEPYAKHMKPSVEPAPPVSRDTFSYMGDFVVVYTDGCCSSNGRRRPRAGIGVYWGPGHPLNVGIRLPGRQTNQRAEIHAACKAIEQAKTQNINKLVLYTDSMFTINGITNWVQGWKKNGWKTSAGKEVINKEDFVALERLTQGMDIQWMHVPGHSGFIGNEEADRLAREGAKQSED
Text: RNaseH expression and purification.
Oligonucleotide-directed RNA cleavage assay.

HBV RNaseH [6] = target: T1, HBV RNaseH; conditions: Table 3, compounds at 100, 60 and 20 μM; compounds 1-91 and 138-140 previously reported (Cai et al., 2014)
Target sequence in this assay (P03156 671-832): as the sequence (P03156 671-832) above
Experimental: RNaseH expression and purification. […] The enriched extracts were dialyzed into 50 mM HEPES pH 7.3, 300 mM NaCl, 20% glycerol, and 5 mM DTT and stored in liquid nitrogen.
Oligonucleotide-directed RNA cleavage assay. […] This mixture was incubated with test compounds in 50 mM Tris pH 8.0, 190 mM NaCl, 5 mM MgCl2, 3.5 mM DTT, 0.05% NP40, 6% glycerol, and 1% DMSO at 42° C. for 90 minutes. Cleavage products were resolved by denaturing polyacrylamide gel electrophoresis, detected by autoradiography, and quantified using ImageJ. Non-specific background values were determined from the incorrect oligonucleotide negative control lane and subtracted from all experimental values. IC50 values were then calculated with GraphPad Prism using three-parameter log(inhibitor) vs. response non-linear curve fitting with the curve minimum set to zero to reflect background subtraction.
The HBV RNaseH inhibition activity of the 16 previously untested compounds was examined using an oligonucleotide-directed cleavage assay. Compounds were incubated with the HBV RNaseH, a ^32P-labeled RNA substrate plus a complementary DNA oligonucleotide and compounds at 100, 60, and 20 μM and the amount of the RNA cleavage products was measured following resolution on an acrylamide gel.
Briefly, a ^32P-labeled RNA was combined with a DNA oligonucleotide and the RNA:DNA substrate was incubated in the presence of the RNaseH and test compounds in 50 mM tris pH 8.0, 190 mM NaCl, 5 mM MgCl2, 3.5 mM DTT, 0.05% NP40, 6% glycerol, and 1% DMSO at 42° C. for 90 minutes. The products were resolved by gel electrophoresis and detected by audioradioagraphy.

[7] = Neutral red (NR) cytotoxicity assay; assay type: cell-based; conditions: human, HepDES19 cells, read-out: Toxicity in HepDES19, NR (CC50)
Experimental: (§1) To further evaluate potential cytotoxicity of these hits, the effect of the compounds was determined for the uptake of neutral red (NR) by the lysosomes and lactate dehydrogenase (LDH) release into the supernatant due to cell membrane permeability. […] Overall, the TI values in Table 3 and FIG. 4 indicate that cytotoxicity was not the cause of antiviral efficacy, although it may have contributed to the apparent efficacy for #84, 85, 90, and 91, which all have TI values below 5.

MTT cytotoxicity assay = assay type: cell-based; conditions: human; Table 2, HepDES19 cells
Experimental: MTT cytotoxicity assays. 1.0×10^4 HepDES19 cells per well were seeded in 96-well plates and incubated in DMEM with 10% FBS plus 1% P/S, 1% non-essential amino acids, and 1% glutamine. Compounds were diluted in medium to the indicated concentrations plus 1% DMSO and added to cells 24 hours after plating, with each concentration tested in triplicate. Medium containing the compound was refreshed daily for the next two days. Thiazolyl blue tetrazolium bromide (MTT, Sigma-Aldrich) was added to 0.25 mg/mL, the cultures were incubated for 60 minutes, metabolites were solubilized in acidic isopropanol, and absorbance was read at 570 nm.

HepDES19 cells = experiment: MTS cytotoxicity assay (CellTiter 96); conditions: CC50 by MTS assay over EC50
Experimental: (§2) HepDES19 cells were seeded at 1×10^4 cells per well in a 96 well plate in the absence of tetracycline. The test compounds were applied in triplicate to the cells 48 hours later and the cells were incubated for 72 hours. Cell viability was measured using the CellTiter 96 Aqueous Non-Radioactive Cell Proliferation Assay (Promega). [3-(4,5-dimethylthiazol-2-yl)-5-(3-carboxymethoxyphenyl)-2-(4-sulfophenyl)-2H-tetrazolium, inner salt] (MTS) and phenazine methosulfate (PMS) solution at 2 mg/mL MTS and 0.043 mg/mL PMS were added to the medium, the cells were incubated for two hours at 37° C., and absorbance was measured at 490 nm. […] Neutral red was added to the media at a final concentration of 40 μg/mL. Cells were washed with PBS and incubated with neutral red medium for two hours at 37° C. The neutral red medium was removed and the cells were washed with PBS. […] Lactate dehydrogenase (LDH) release was measured using the LDH-cytotoxicity colorimetric assay kit (BioVision). Cells were lysed with 1% Triton-X to provide the high control and DMSO vehicle treatment was the low control. Supernatants were collected and transferred to a fresh 96 well plate, and LDH reaction mixture containing the catalyst and dye solution was added. The reaction was incubated for 15-20 minutes at room temperature in a dark box and absorbance was measured at 490 nm. Percent cytotoxicity was calculated as [(test sample−low control)/([…])]×100.

[8] = MTS cytotoxicity assay (CellTiter 96); conditions: human
Experimental: as §2

[9] = Lactate dehydrogenase (LDH) release cytotoxicity assay; assay type: cell-based; conditions: human, HepDES19 cells, read-out: Toxicity in HepDES19, LDH (CC50)
Experimental: as §1

[10] = HepDES19, read-out: HBV replication inhibition (EC50, μm)

| Compound | inhibition of variant genotype D RNAseH enzymes [1] | weighted combination index (CI) with Lamivudine (HBV replication [2]) | Inhibition of HBV RNaseH, Molecular Beacon cleavage assay (HBV RNaseH [3]) | accumulation of RNA:DNA heteroduplexes (HBV RNaseH [4]) | log reduction at 5 µM (HSV-1) | EC50 (HBV replication [5]; [10]) | Human RNaseH1 (human RNaseH1) | Inhibition of HBV RNaseH, Oligonucleotide directed cleavage assay (HBV RNaseH [6]) | inhibition in the molecular beacon assay (HBV RNaseH [3]; 2.1 μg purified HBV RNaseH) | CC50 at 72 h [7] | CC50 (MTT cytotoxicity assay) | TI (therapeutic index, CC50(MTS)/EC50) (HepDES19 cells) | CC50 at 72 h [8] | CC50 at 72 h [9] | EC50 (HBV replication [5]; Table 2, HepDES19 cells, read-out: EC50) |
| --- | --- | --- | --- | --- | --- | --- | --- | --- | --- | --- | --- | --- | --- | --- | --- |
| CC(C)c1ccc(O)c(=O)c(O)c1 [Compound 46, β-thujaplicinol, reference compound] | about 50% | 0.44±0.3 | – | – | – | – | – | – | – | – | – | – | – | – | – |
| COc1ccc(CNC(=O)C2C(=O)N(O)C(=O)c3cc([N+](=O)[O-])ccc32)cc1 (stereo not drawn) [Compound 89] | – | – | − (No inhibition detected at 500 μM) | caused RNA:DNA heteroduplexes to accumulate | < 1 | 2.6 ± 0.8 µM | ++ (detectable inhibition at 20 μM) | − (No inhibition detected at 100 μM) | – | – | – | – | – | – | – |
| O=C1Cc2ccccc2C(=O)N1O [Compound 1, 2-hydroxyisoquinoline-1,3(2H,4H)-dione] | about 50% | 0.70±0.1 | + (Dose-dependent inhibition at ≤500 μM) | – | < 1 | 4.2 ± 1.4 µM | – | + (Dose-dependent inhibition at ≤100 μM) | inhibited | – | – | – | – | – | – |
| COc1ccc2c(c1)C(=O)N(O)C(=O)C2C(=O)NCc1ccc(F)cc1 (stereo not drawn) [Compound 88] | – | – | − (No inhibition detected at 500 μM) | – | < 1 | 2.5 ± 0.5 µM | +++ (detectable inhibition at 10 μM) | − (No inhibition detected at 100 μM) | – | 26 ± 2 µM | 40 µM | 16 | 40 ± 6 µM | 57 ± 6 µM | – |
| O=C(NCc1ccc(F)cc1)C1C(=O)N(O)C(=O)c2cc(Cl)ccc21 (stereo not drawn) [Compound 87] | – | – | − (No inhibition detected at 500 μM) | – | < 1 | 4.5 ± 3.7 µM | +++ (detectable inhibition at 10 μM) | − (No inhibition detected at 100 μM) | – | 24 ± 1 µM | 37 µM | 8.2 | 37 ± 17 µM | 52 ± 15 µM | 1.6 µM |
